Holding throughout (assay type): biochemical
The target of assay [1] is T1, 320 wild-type protein kinases (Homo sapiens, UniProt O00141).
T1 sequence (O00141 1-431): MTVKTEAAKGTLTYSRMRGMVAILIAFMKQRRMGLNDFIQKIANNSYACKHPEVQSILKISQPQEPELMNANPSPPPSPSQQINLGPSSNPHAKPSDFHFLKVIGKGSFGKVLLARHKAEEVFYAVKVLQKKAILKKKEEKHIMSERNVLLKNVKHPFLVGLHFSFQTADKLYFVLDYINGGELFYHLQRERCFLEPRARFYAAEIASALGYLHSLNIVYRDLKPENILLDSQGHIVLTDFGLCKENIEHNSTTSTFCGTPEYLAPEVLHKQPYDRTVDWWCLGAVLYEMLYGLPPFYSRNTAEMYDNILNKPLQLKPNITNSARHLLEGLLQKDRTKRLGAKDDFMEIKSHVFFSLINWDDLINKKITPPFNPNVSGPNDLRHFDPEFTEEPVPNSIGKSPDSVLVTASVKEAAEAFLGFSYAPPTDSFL
The following applies: kinase SGK1, singlicate. An excerpt:
(§1) Table S4. Profiling of two compounds at two concentrations against 320 wild-type protein kinases; singlicate measurement; Residual activities (% of control).

The target of assay [2] is 320 wild-type protein kinases (Homo sapiens, UniProt P22455). The note with it: singlicate.
Text: as §1

Assay [3] concerns the target T2, 320 wild-type protein kinases (Homo sapiens, UniProt P54762).
T2 sequence (P54762 18-984): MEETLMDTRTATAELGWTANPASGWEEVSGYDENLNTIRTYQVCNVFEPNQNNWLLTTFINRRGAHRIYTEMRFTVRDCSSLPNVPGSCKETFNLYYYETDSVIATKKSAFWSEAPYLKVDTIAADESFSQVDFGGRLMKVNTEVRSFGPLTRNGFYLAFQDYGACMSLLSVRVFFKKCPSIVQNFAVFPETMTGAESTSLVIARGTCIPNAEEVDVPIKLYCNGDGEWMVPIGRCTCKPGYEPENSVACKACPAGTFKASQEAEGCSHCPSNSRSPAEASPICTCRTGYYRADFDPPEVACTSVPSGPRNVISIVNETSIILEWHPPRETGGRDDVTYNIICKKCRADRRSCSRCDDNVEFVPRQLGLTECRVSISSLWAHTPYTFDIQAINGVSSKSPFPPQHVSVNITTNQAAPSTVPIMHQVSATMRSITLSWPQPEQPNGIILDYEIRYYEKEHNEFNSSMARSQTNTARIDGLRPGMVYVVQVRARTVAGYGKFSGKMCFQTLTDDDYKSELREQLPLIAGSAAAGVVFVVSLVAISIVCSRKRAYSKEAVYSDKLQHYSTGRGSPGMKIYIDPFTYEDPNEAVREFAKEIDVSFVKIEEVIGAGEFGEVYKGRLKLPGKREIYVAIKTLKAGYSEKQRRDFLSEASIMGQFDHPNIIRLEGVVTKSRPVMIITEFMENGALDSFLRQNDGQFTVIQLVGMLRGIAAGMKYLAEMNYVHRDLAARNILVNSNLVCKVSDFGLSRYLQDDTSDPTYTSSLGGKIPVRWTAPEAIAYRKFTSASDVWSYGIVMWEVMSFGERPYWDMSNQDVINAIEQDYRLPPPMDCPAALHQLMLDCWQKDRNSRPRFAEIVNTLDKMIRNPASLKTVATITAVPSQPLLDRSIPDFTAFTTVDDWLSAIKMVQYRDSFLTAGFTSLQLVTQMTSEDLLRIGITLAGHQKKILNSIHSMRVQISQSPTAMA
The following applies: singlicate.
Text: as §1

Assay [4] addresses 320 wild-type protein kinases (Homo sapiens, UniProt P68400). The following applies: singlicate.
Text: as §1

For assay [5], the target named is 320 wild-type protein kinases (Homo sapiens, UniProt Q00535). The following applies: singlicate.
Text: as §1

The target of assay [6] is 320 wild-type protein kinases (Homo sapiens, UniProt Q6IQ55). The note with it: kinase TTBK2, singlicate.
Text: as §1

In assay [7] the target is T3, 320 wild-type protein kinases (Homo sapiens, UniProt Q9H093).
T3 sequence (Q9H093 1-628): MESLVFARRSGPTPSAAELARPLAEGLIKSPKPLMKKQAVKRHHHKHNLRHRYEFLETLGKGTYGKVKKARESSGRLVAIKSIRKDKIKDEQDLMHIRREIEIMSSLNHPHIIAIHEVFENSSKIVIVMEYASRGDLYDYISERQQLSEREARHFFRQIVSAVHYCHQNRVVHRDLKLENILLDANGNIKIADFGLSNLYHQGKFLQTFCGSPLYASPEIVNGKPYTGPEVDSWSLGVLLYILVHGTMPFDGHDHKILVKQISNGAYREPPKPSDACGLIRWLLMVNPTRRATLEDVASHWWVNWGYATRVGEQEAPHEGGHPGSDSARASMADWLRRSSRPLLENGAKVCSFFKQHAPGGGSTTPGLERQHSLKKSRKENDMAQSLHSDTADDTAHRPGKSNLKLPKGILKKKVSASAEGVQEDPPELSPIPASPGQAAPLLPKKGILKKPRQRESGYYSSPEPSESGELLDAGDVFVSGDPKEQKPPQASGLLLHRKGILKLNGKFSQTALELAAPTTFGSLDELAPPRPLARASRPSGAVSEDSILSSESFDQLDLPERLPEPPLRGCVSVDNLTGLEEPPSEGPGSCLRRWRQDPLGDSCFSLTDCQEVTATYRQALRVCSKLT
The following applies: kinase SNARK, singlicate.
Text: as §1

Read-outs that look alike come from different tables or passages of the source.

Chain of 320 wild-type protein kinases (Homo sapiens, UniProt Q00535) (Q00535 whole entry): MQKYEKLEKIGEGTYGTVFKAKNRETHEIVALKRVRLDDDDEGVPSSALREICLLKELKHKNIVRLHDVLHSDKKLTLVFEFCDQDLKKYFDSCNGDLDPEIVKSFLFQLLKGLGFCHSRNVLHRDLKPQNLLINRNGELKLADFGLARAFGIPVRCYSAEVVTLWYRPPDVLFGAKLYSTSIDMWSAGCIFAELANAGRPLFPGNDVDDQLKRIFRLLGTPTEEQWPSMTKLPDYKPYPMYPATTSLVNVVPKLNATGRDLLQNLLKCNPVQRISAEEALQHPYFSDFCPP
Chain of 320 wild-type protein kinases (Homo sapiens, UniProt Q6IQ55) (Q6IQ55 whole entry): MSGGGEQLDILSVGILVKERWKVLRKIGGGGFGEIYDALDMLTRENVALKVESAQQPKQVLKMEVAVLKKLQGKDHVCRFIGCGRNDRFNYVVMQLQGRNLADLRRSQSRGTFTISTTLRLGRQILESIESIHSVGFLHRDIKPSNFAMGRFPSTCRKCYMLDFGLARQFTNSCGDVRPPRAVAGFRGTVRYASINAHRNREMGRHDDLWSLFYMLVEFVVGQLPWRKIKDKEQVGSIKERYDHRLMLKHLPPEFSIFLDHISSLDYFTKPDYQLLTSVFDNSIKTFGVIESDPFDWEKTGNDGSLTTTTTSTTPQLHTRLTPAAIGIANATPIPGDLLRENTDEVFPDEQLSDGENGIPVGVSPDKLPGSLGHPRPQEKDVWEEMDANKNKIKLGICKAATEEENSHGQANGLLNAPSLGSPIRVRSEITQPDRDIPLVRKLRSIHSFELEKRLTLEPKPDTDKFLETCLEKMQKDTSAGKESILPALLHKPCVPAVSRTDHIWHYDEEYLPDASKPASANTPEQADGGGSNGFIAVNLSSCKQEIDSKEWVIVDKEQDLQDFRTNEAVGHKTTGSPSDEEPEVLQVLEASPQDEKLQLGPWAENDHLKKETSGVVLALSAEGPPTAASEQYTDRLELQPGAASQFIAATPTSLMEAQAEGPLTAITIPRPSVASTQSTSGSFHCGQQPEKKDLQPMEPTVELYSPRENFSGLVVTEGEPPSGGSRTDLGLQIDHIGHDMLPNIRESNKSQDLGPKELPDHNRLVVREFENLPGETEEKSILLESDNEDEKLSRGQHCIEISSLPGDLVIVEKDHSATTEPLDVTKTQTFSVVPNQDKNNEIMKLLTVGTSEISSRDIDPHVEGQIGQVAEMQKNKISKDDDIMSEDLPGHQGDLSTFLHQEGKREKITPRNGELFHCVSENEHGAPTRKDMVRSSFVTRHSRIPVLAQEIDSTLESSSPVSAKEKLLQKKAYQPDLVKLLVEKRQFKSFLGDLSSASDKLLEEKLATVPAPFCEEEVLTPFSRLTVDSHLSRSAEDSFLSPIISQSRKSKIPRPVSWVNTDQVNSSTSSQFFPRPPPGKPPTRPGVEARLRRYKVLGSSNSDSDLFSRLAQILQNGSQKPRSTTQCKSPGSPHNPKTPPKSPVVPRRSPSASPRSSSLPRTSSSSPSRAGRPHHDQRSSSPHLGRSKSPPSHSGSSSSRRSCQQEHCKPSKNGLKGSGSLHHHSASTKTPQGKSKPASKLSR
Chain of 320 wild-type protein kinases (Homo sapiens, UniProt P22455) (P22455 22-802): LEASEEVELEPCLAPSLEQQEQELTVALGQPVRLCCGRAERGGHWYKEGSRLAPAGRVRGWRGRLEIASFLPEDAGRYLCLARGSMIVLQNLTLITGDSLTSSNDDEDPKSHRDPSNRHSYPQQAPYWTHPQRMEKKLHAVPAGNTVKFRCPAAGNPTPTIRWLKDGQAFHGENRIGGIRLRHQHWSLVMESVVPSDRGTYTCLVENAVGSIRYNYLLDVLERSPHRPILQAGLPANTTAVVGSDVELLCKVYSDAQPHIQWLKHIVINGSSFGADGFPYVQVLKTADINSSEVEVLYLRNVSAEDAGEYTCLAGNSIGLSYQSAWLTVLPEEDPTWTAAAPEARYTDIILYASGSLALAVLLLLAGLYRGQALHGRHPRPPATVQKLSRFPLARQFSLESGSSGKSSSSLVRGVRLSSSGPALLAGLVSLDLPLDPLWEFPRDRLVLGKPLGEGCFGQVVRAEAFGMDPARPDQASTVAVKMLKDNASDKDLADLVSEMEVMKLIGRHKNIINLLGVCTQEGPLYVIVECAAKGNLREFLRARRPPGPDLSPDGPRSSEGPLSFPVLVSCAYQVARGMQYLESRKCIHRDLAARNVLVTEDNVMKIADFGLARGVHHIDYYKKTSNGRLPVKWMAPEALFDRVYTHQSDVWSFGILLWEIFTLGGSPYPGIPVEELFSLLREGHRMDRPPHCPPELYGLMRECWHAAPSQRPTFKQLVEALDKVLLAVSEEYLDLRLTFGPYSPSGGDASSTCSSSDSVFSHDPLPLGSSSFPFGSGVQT
Chain of 320 wild-type protein kinases (Homo sapiens, UniProt P68400) (P68400 whole entry): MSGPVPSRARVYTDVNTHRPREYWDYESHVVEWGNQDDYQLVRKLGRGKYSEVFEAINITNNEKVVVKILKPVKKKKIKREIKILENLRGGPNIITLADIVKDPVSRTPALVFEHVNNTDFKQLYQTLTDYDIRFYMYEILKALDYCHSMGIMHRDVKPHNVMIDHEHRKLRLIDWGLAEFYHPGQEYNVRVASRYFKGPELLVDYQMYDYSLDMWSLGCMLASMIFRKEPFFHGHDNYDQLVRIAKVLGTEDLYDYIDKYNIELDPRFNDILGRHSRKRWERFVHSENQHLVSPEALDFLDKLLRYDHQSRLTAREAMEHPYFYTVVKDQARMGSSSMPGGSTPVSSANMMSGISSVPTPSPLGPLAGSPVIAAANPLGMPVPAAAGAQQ

As to `C#Cc1cc(Nc2ncnc3cc(OC)c(OC)cc23)ccc1Cl` [Compound 45], the figures for the “Residual activity, SGK1” value in assay [1] (assay conc. 1.0E-06 M) and in assay [1] (assay conc. 1.0E-07 M) were 88 % of control and 99 % of control, respectively. The Residual activity is 96 % of control in assay [2] (FGF-R4, 1.0E-06 M); 100 % of control in assay [2] (FGF-R4, 1.0E-07 M); 82 % of control in assay [3] (EPHB1, 1.0E-06 M); 86 % of control in assay [3] (EPHB1, 1.0E-07 M); 101 % of control in assay [4] (CK2-alpha1, 1.0E-06 M); 109 % of control in assay [4] (CK2-alpha1, 1.0E-07 M). Besides, the Residual activity is 103 % of control in assay [5] (CDK5/p25NCK, 1.0E-06 M); 98 % of control in assay [5] (CDK5/p25NCK, 1.0E-07 M); 88 % of control in assay [5] (CDK5/p35NCK, 1.0E-06 M); 88 % of control in assay [5] (CDK5/p35NCK, 1.0E-07 M). The “Residual activity, TTBK2” value in assay [6] (assay conc. 1.0E-06 M) was 95 % of control; in assay [6] (assay conc. 1.0E-07 M), 96 % of control. The entries for the “Residual activity, SNARK” value in assay [7] (assay conc. 1.0E-06 M) and in assay [7] (assay conc. 1.0E-07 M) were 87 % of control and 88 % of control, respectively.

In the case of `C#Cc1cc(Nc2ncnc3cc(I)ccc23)ccc1Cl` [Compound 41], the figures for the “Residual activity, SGK1” value in assay [1] (assay conc. 1.0E-06 M) and in assay [1] (assay conc. 1.0E-07 M) were 77 % of control and 103 % of control, respectively. Also, the Residual activity is given as 88 % of control in assay [2] (FGF-R4, 1.0E-06 M); 96 % of control in assay [2] (FGF-R4, 1.0E-07 M); 87 % of control in assay [3] (EPHB1, 1.0E-06 M); 103 % of control in assay [3] (EPHB1, 1.0E-07 M); 99 % of control in assay [4] (CK2-alpha1, 1.0E-06 M); 104 % of control in assay [4] (CK2-alpha1, 1.0E-07 M). The Residual activity is listed as 100 % of control in assay [5] (CDK5/p25NCK, 1.0E-06 M); 119 % of control in assay [5] (CDK5/p25NCK, 1.0E-07 M); 86 % of control in assay [5] (CDK5/p35NCK, 1.0E-06 M); 87 % of control in assay [5] (CDK5/p35NCK, 1.0E-07 M). Also, the “Residual activity, TTBK2” value in assay [6] (assay conc. 1.0E-06 M) is 101 % of control; in assay [6] (assay conc. 1.0E-07 M), 102 % of control. The “Residual activity, SNARK” value was 83 % of control in assay [7] (assay conc. 1.0E-06 M) and 101 % of control in assay [7] (assay conc. 1.0E-07 M).

For the origin of these results see publication PMC9329436, “Optimization of the 4-anilinoquin(az)oline scaffold as epidermal growth factor receptor (EGFR) inhibitors for chordoma utilizing a toxicology profiling assay platform” (Scientific Reports, 2022).
